Reference: PMC10974995 (Pathogens, 2024)
Values after ≈ are worked out from the molar mass of the structure shown. Where two headings read alike, the source gives them in different places.

Assays:
boar sperm [1] = tested on: boar sperm
[2] = tested on: differentiated PK-15 cells
[3] = tested on: PK-15 (porcine kidney epithelial cells) and/or FFL (feline fetus lung cells)
Fish = settings: cited from earlier work
Rat = settings: po; cited from earlier work
[4] = tested on: PK-15 (porcine kidney epithelial cells) and/or FFL (feline fetus lung cells); assay: cells; settings: Sus scrofa
boar sperm [5] = assay: cells
[6] = tested on: differentiated PK-15 cells; assay: cells; settings: Sus scrofa, PK-15, read-out: Mitochondrial Toxicity 1d (EC50, acceleration of glycolysis and depolarization of mitochondria)
[7] = PK-15, 48 h, read-out: EC50 In Vitro ICP 2d
[8] = 72 h, read-out: EC50 Ex Vivo BSMI 1–3d
[9] = PK-15, read-out: EC50 In Vitro ICP, positive controls, mean of 10 or 11 measurements
[10] = read-out: EC50 Ex Vivo BSMI, positive controls, mean of 10 or 11 measurements

Acrebol
EC50 Ex Vivo BSMI 1–3d (boar sperm [1]): (+) 0.1 μg mL^–1
Ex Vivo BSMI 1–3d, toxic (+) / nontoxic (−), microbial metabolites (boar sperm [1]): (+) 0.1 (key: (+): For the microbial metabolites, EC50 < 5 µg mL^−1 and <10 µg mL^−1 were considered as toxic in the BSMI and ICP assays, respectively; nontoxic as (−))
Mitochondrial Toxicity 1d (EC50, acceleration of glycolysis and depolarization of mitochondria) [2]: (+) 0.1 μg mL^–1
EC50 In Vitro ICP 2d [3]: (−) >10 μg mL^–1
In Vitro ICP 2d, toxic (+) / nontoxic (−), microbial metabolites [3]: (−) >10

Polyethyleneglycol-p-is-octylphenyl ether [Triton X –100]
EC50 Ex Vivo BSMI 1–3d (boar sperm [1]): (+) 1 μg mL^–1
Ex Vivo BSMI 1–3d, toxic (+) / nontoxic (−), xenobiotic chemicals (boar sperm [1]): (+) 1 (key: (+): For the xenobiotic chemicals, EC50 values < 10 µg mL^−1 and <20 µg mL^−1 were considered as toxic in the BSMI assay and in the ICP assay, respectively; nontoxic as (−))
EC50 In Vitro ICP 2d [3]: (−) 30 μg mL^–1
In Vitro ICP 2d, toxic (+) / nontoxic (−), xenobiotic chemicals [3]: (−) 30
In Vivo (toxicity to experimental animals), xenobiotic chemicals (Fish): + (key: LD50 Fish Inhaled <10 μg mL ^–1 = Toxic in vivo Marked as +.)
Toxicity In Vivo LD50 Fish (Fish): 5 mg/L
Toxicity In Vivo LD50 Rat p.o. (Rat): 500 mg/kg

C/C1=C\[C@@H](C)C/C=C/[C@H]2[C@@H]3O[C@]3(C)[C@@H](C)[C@H]3[C@H](Cc4c[nH]c5ccccc45)NC(=O)[C@]32C(=O)/C=C/C(=O)[C@@H]1O [Chaetoglobosin A]
Ex Vivo BSMI 1–3d, toxic (+) / nontoxic (−), microbial metabolites (boar sperm [1]; pig (boar)): (+) <1 (key: (+): For the microbial metabolites, EC50 < 5 µg mL^−1 and <10 µg mL^−1 were considered as toxic in the BSMI and ICP assays, respectively; nontoxic as (−))
In Vitro ICP 2d, toxic (+) / nontoxic (−), microbial metabolites [3]: (+) 3 (key: (+): For the microbial metabolites, EC50 < 5 µg mL^−1 and <10 µg mL^−1 were considered as toxic in the BSMI and ICP assays, respectively; nontoxic as (−))
In Vivo (toxicity to experimental animals), mycotoxins and fungal metabolites (Rat): + (key: LD50 rat p.o. <1000 mg kg ^–1 Classified as Toxic in vivo +.)
Toxicity In Vivo LD50 Rat p.o. (Rat): >400 mg/kg
EC50 [4, 7]: 3 µg/mL (≈ 5.67 µM)
EC50 (boar sperm [5]; [8]): < 1 µg/mL

CCCCCCCCCCCCOS(=O)(=O)[O-].[Na+] [SDS, Sodium dodecyl sulfate]
EC50 Ex Vivo BSMI 1–3d (boar sperm [1]): (+) 10 μg mL^–1
Ex Vivo BSMI 1–3d, toxic (+) / nontoxic (−), xenobiotic chemicals (boar sperm [1]): (+) 10 (key: (+): For the xenobiotic chemicals, EC50 values < 10 µg mL^−1 and <20 µg mL^−1 were considered as toxic in the BSMI assay and in the ICP assay, respectively; nontoxic as (−))
EC50 In Vitro ICP 2d [3]: (−) 120 μg mL^–1
In Vitro ICP 2d, toxic (+) / nontoxic (−), xenobiotic chemicals [3]: (−) 120
In Vivo (toxicity to experimental animals), xenobiotic chemicals (Fish): + (key: LD50 Fish Inhaled <10 μg mL ^–1 = Toxic in vivo Marked as +.)
Toxicity In Vivo LD50 Fish (Fish): 30 mg/L
Toxicity In Vivo LD50 Rat p.o. (Rat): 1288 mg/kg

Polyethyleneglycol monalkyl ether [Genapol X 080]
EC50 Ex Vivo BSMI 1–3d (boar sperm [1]): (+) 3 μg mL^–1
Ex Vivo BSMI 1–3d, toxic (+) / nontoxic (−), xenobiotic chemicals (boar sperm [1]): (+) 3 (key: (+): For the xenobiotic chemicals, EC50 values < 10 µg mL^−1 and <20 µg mL^−1 were considered as toxic in the BSMI assay and in the ICP assay, respectively; nontoxic as (−))
Mitochondrial Toxicity 1d (EC50, acceleration of glycolysis and depolarization of mitochondria) [2]: (+) 5 μg mL^–1
Mitochondrial toxicity after testing with somatic cells [2]: Mitochondrial toxicity was recorded
EC50 In Vitro ICP 2d [3]: (−) 30 μg mL^–1
In Vitro ICP 2d, toxic (+) / nontoxic (−), xenobiotic chemicals [3]: (−) 30
In Vivo (toxicity to experimental animals), xenobiotic chemicals (Fish): + (key: LD50 Fish Inhaled <10 μg mL ^–1 = Toxic in vivo Marked as +.)
Toxicity In Vivo LD50 Fish (Fish): 5 mg/L
Toxicity In Vivo LD50 Rat p.o. (Rat): >2000 mg/kg

COc1cc2c(c3oc4cccc(O)c4c(=O)c13)[C@@H]1C=CO[C@@H]1O2 [Sterigmatocystin]
EC50 Ex Vivo BSMI 1–3d (boar sperm [1]): (−)>20 μg mL^–1
Ex Vivo BSMI 1–3d, toxic (+) / nontoxic (−), microbial metabolites (boar sperm [1]; pig (boar)): (−)>20
EC50 In Vitro ICP 2d [3]: (+) 0.1 μg mL^–1
In Vitro ICP 2d, toxic (+) / nontoxic (−), microbial metabolites [3]: (+) 0.1 (key: (+): For the microbial metabolites, EC50 < 5 µg mL^−1 and <10 µg mL^−1 were considered as toxic in the BSMI and ICP assays, respectively; nontoxic as (−))
In Vivo (toxicity to experimental animals), mycotoxins and fungal metabolites (Rat): + (key: LD50 rat p.o. <1000 mg kg ^–1 Classified as Toxic in vivo +.)

Polyethylene glycol sorbitan mono oleate [Tween 80]
EC50 Ex Vivo BSMI 1–3d (boar sperm [1]): (+) 10 μg mL^–1
Ex Vivo BSMI 1–3d, toxic (+) / nontoxic (−), xenobiotic chemicals (boar sperm [1]): (+) 10 (key: (+): For the xenobiotic chemicals, EC50 values < 10 µg mL^−1 and <20 µg mL^−1 were considered as toxic in the BSMI assay and in the ICP assay, respectively; nontoxic as (−))
Response in the BSMI assay (boar sperm [1]): weak positive response
In Vitro ICP 2d, toxic (+) / nontoxic (−), xenobiotic chemicals [3]: (−) 500
In Vivo (toxicity to experimental animals), xenobiotic chemicals (Fish): −
Toxicity In Vivo LD50 Rat p.o. (Rat): >25,000 mg kg^−1

CC(C)=C[C@H]1C[C@H](C)[C@]2(CC[C@]3(C)C[C@H]4[C@H](C(=O)C[C@@]4(C)O)/C(C=O)=C\C[C@H]32)O1 [Ophiobolin, Ophiobolin A]
Ex Vivo BSMI 1–3d, toxic (+) / nontoxic (−), microbial metabolites (boar sperm [1]; pig (boar)): (+) 0.3 (key: (+): For the microbial metabolites, EC50 < 5 µg mL^−1 and <10 µg mL^−1 were considered as toxic in the BSMI and ICP assays, respectively; nontoxic as (−))
In Vitro ICP 2d, toxic (+) / nontoxic (−), microbial metabolites [3]: (+) 0.1 (key: (+): For the microbial metabolites, EC50 < 5 µg mL^−1 and <10 µg mL^−1 were considered as toxic in the BSMI and ICP assays, respectively; nontoxic as (−))
In Vivo (toxicity to experimental animals), mycotoxins and fungal metabolites (Rat): + (key: LD50 rat p.o. <1000 mg kg ^–1 Classified as Toxic in vivo +.)
Toxicity In Vivo LD50 Rat p.o. (Rat): 238 mg/kg
EC50 [4, 7]: 0.1 µg/mL (≈ 0.25 µM)
EC50 (boar sperm [5]; [8]): 0.3 µg/mL (≈ 0.749 µM)

Cc1cc(O)c2c(c1)C(=O)c1cc(O)cc(O)c1C2=O [Emodin]
Ex Vivo BSMI 1–3d, toxic (+) / nontoxic (−), microbial metabolites (boar sperm [1]; pig (boar)): (+) 4 (key: (+): For the microbial metabolites, EC50 < 5 µg mL^−1 and <10 µg mL^−1 were considered as toxic in the BSMI and ICP assays, respectively; nontoxic as (−))
In Vitro ICP 2d, toxic (+) / nontoxic (−), microbial metabolites [3]: (−) 45
EC50 [6]: 3 µg/mL (≈ 11.1 µM)
Toxicity In Vivo LD50 Rat p.o. (Rat): 1000 mg/kg
EC50 [4, 7]: 45 µg/mL (≈ 167 µM)
EC50 (boar sperm [5]; [8]): 4 µg/mL (≈ 14.8 µM)

O=c1cc(O)c1=O [Moniliformin]
EC50 Ex Vivo BSMI 1–3d (boar sperm [1]): (+) 2 μg mL^–1
Ex Vivo BSMI 1–3d, toxic (+) / nontoxic (−), microbial metabolites (boar sperm [1]): (+) 2 (key: (+): For the microbial metabolites, EC50 < 5 µg mL^−1 and <10 µg mL^−1 were considered as toxic in the BSMI and ICP assays, respectively; nontoxic as (−))
Mitochondrial Toxicity 1d (EC50, acceleration of glycolysis and depolarization of mitochondria) [2]: (+) 2 μg mL^–1
EC50 In Vitro ICP 2d [3]: (−) >20 μg mL^–1
In Vitro ICP 2d, toxic (+) / nontoxic (−), microbial metabolites [3]: (−) >20
In Vivo (toxicity to experimental animals), mycotoxins and fungal metabolites (Rat): + (key: LD50 rat p.o. <1000 mg kg ^–1 Classified as Toxic in vivo +.)
Toxicity In Vivo LD50 Rat p.o. (Rat): 50 mg/kg

CC(C)[C@H]1C(=O)O[C@H](C(C)C)C(=O)N(C)[C@@H](C(C)C)C(=O)O[C@H](C(C)C)C(=O)N(C)[C@@H](C(C)C)C(=O)O[C@H](C(C)C)C(=O)N1C [Enniatin B]
Ex Vivo BSMI 1–3d, toxic (+) / nontoxic (−), microbial metabolites (boar sperm [1]; pig (boar)): (+) 0.5 (key: (+): For the microbial metabolites, EC50 < 5 µg mL^−1 and <10 µg mL^−1 were considered as toxic in the BSMI and ICP assays, respectively; nontoxic as (−))
In Vitro ICP 2d, toxic (+) / nontoxic (−), microbial metabolites [3]: (−) 15
EC50 [6]: 2 µg/mL (≈ 3.13 µM)
In Vivo (toxicity to experimental animals), mycotoxins and fungal metabolites (Rat): + (key: LD50 rat p.o. <1000 mg kg ^–1 Classified as Toxic in vivo +.)
Toxicity In Vivo LD50 Rat p.o. (Rat): 350 mg/kg
EC50 [4, 7]: 15 µg/mL (≈ 23.4 µM)
EC50 [4, 9]: 18 µg/mL (≈ 28.1 µM)
EC50 (boar sperm [5]; [8]): 0.5 µg/mL (≈ 0.781 µM)
EC50 (boar sperm [5]; [10]): 0.6 µg/mL (≈ 0.938 µM)

CC1(C)C=Cc2c(ccc3c2[N+]([O-])=C2C3=C[C@@]34NC(=O)[C@]5(CCCN5C3=O)C[C@H]4C2(C)C)O1 [Avrainvillamide]
Ex Vivo BSMI 1–3d, toxic (+) / nontoxic (−), microbial metabolites (boar sperm [1]; pig (boar)): (+) 0.2 (key: (+): For the microbial metabolites, EC50 < 5 µg mL^−1 and <10 µg mL^−1 were considered as toxic in the BSMI and ICP assays, respectively; nontoxic as (−))
In Vitro ICP 2d, toxic (+) / nontoxic (−), microbial metabolites [3]: (+) 0.2 (key: (+): For the microbial metabolites, EC50 < 5 µg mL^−1 and <10 µg mL^−1 were considered as toxic in the BSMI and ICP assays, respectively; nontoxic as (−))
EC50 [4, 7]: 0.2 µg/mL (≈ 0.449 µM)
EC50 (boar sperm [5]; [8]): 0.2 µg/mL (≈ 0.449 µM)

CC1(C)C=Cc2c(ccc3c2[N+]([O-])=C2C(C)(C)[C@@H]4CC56CCCN5C(=O)[C@]4(NC6=O)[C@H]4N5C(=O)[C@@]67CCCN6C(=O)[C@@]56[C@H](c5c(n(O)c8c9c(ccc58)OC(C)(C)C=C9)C(C)(C)[C@@H]6C7)[C@]234)O1 [Stephacidin B]
EC50 Ex Vivo BSMI 1–3d (boar sperm [1]): (+) 0.3 μg mL^–1
Ex Vivo BSMI 1–3d, toxic (+) / nontoxic (−), microbial metabolites (boar sperm [1]): (+) 0.3 (key: (+): For the microbial metabolites, EC50 < 5 µg mL^−1 and <10 µg mL^−1 were considered as toxic in the BSMI and ICP assays, respectively; nontoxic as (−))
EC50 In Vitro ICP 2d [3]: (++) 0.3 μg mL^–1

CC1=C2C(=CO[C@H](C)[C@H]2C)C(O)=C(C(=O)O)C1=O [Citrinin]
Ex Vivo BSMI 1–3d, toxic (+) / nontoxic (−), microbial metabolites (boar sperm [1]; pig (boar)): (−) 20
In Vitro ICP 2d, toxic (+) / nontoxic (−), microbial metabolites [3]: (+) 10 (key: (+): For the microbial metabolites, EC50 < 5 µg mL^−1 and <10 µg mL^−1 were considered as toxic in the BSMI and ICP assays, respectively; nontoxic as (−))
In Vivo (toxicity to experimental animals), mycotoxins and fungal metabolites (Rat): + (key: LD50 rat p.o. <1000 mg kg ^–1 Classified as Toxic in vivo +.)
Toxicity In Vivo LD50 Rat p.o. (Rat): 105 mg/kg
EC50 [4, 7]: 10 µg/mL (≈ 40 µM)
EC50 [4, 9]: 13 µg/mL (≈ 51.9 µM)
EC50 (boar sperm [5]; [8]): 20 µg/mL (≈ 79.9 µM)
EC50 (boar sperm [5]; [10]): ≥ 20 µg/mL

CC(C)[C@@H]1NC(=O)[C@H](C)OC(=O)[C@@H](C(C)C)NC(=O)[C@@H](C(C)C)OC(=O)[C@H](C(C)C)NC(=O)[C@H](C)OC(=O)[C@@H](C(C)C)NC(=O)[C@@H](C(C)C)OC(=O)[C@H](C(C)C)NC(=O)[C@H](C)OC(=O)[C@@H](C(C)C)NC(=O)[C@@H](C(C)C)OC1=O [Valinomycin]
Toxicity In Vivo LD50 Rat p.o. (Rat): 4 mg/kg
